Experimental data from US5529999A, “Antitumor compositions and methods of treatment” (Eli Lilly and Company, priority 1994, dated 1996).
Converted amounts (≈) assume the structure as drawn.

Test system: CCRF-CEM cells
Assay: growth inhibition / cytotoxicity against CCRF-CEM human leukemia cells in vitro
Format: cell-based
Conditions: serum-free UltraCHO media, 72 hours incubation, read-out: IC50 (concentration required for 50% inhibition of growth), CCRF-CEM
Protocol: The in vitro data were obtained using CCRF-CEM cells, a human leukemia cell line. Foley et al., Cancer, 18:522 (1965). These cells were grown in albumin-free UltraCHO® media (BioWhittaker, Inc., Walkersville, Md.) using standard techniques. See, e.g., G. B. Grindey, et al., Journal of Molecular Pharmacology, 16:601 (1979). Dose-response curves were generated for various compounds to determine the concentration required for 50% inhibition of growth (IC50). Cluster plates were prepared in duplicate with the compound at various concentrations. Test compounds were dissolved initially in DMSO at a concentration of 4 mg/ml and further diluted with solvent to the desired concentration. Cells in serum-free UltraCHO media were added to the well at a final concentration of 4.8×10^4 cells/well in a total volume of 2.0 ml. After 72 hours of incubation (95% air, 5% CO2), cell numbers were determined on a ZBI Coulter counter. Cell number for indicated controls at the end of incubation was usually (4-6)×10^5 cells/well. Cell viability was also measured by staining with 3-[4,5-dimethylthiazol-2-yl]-2,5-diphenyl-tetrazolium bromide (MTT) using standard techniques. R. I. Freshney, Culture of Animal Cells: A Manual of Basic Technique, 253-254 (2d ed. 1987).
Column 1 refers to the example number of the compound tested; Column 2 depicts the in vitro cytoxicity against CCRF-CEM cells by relating the concentration of the test compound required for 50% inhibition of growth (IC50) of the cells in the well. The designation "CSQ" refers to the compound 4-amino-N-(5-chloro-2-quinoxalinyl)benzenesulfonamide and is used as a comparator.

Row | Compound | IC50 [µg/mL]
1 | O=S(=O)(Nc1cnc2c(Cl)c(Cl)ccc2n1)c1ccc2c(c1)CCO2 [Example 13, N-(5,6-dichloro-2-quinoxalinyl)-2,3-dihydrobenzofuran-5-sulfonamide] | 6 (≈ 15.1 µM)
2 | CN(C)c1ccc(S(=O)(=O)Nc2cnc3ccc(Cl)c(Cl)c3n2)cc1 [Example 14, 4-N',N'-dimethylamino-N-(7,8-dichloro-2-quinoxalinyl)benzenesulfonamide] | 4.6 (≈ 11.6 µM)
3 | O=S(=O)(Nc1cnc2ccc(Cl)c(Cl)c2n1)c1ccc2c(c1)CCO2 [Example 15, N-(7,8-dichloro-2-quinoxalinyl)-2,3-dihydrobenzofuran-5-sulfonamide] | 10.8 (≈ 27.3 µM)
4 | CN1CCc2cc(S(=O)(=O)Nc3cnc4cc(Cl)ccc4n3)ccc21 [Example 8, N-(6-chloro-2-quinoxalinyl)-2,3-dihydro-1-methyl-1H-indole-5-sulfonamide] | 1.5 (≈ 4 µM)
5 | CN(C)c1ccc(S(=O)(=O)Nc2cnc3cc(Cl)c(Cl)cc3n2)cc1 [Example 1, 4-N',N'-dimethylamino-N-(6,7-dichloro-2-quinoxalinyl)benzenesulfonamide] | 0.8 (≈ 2.01 µM)
6 | Cn1ccc2cc(S(=O)(=O)Nc3cnc4c(Cl)cccc4n3)ccc21 [Example 6, N-(5-chloro-2-quinoxalinyl)-1-methyl-1H-indole-5-sulfonamide] | 0.4 (≈ 1.07 µM)
7 | CN(C)c1ccc(S(=O)(=O)Nc2cnc3cccc(Cl)c3n2)cc1 [Example 11, 4-N',N'-dimethylamino-N-(8-chloro-2-quinoxalinyl)benzenesulfonamide] | 15.1 (≈ 41.6 µM)
8 | CN(C)c1ccc(S(=O)(=O)Nc2cnc3c(Cl)c(Cl)ccc3n2)cc1 [Example 12, 4-N',N'-dimethylamino-N-(5,6-dichloro-2-quinoxalinyl)benzenesulfonamide] | 7.2 (≈ 18.1 µM)
9 | CN(C)c1ccc(S(=O)(=O)Nc2cnc3cc(Cl)ccc3n2)cc1 [Example 7, 4-N',N'-dimethylamino-N-(6-chloro-2-quinoxalinyl)benzenesulfonamide] | 1.2 (≈ 3.31 µM)
10 | CN(C)c1ccc(S(=O)(=O)Nc2cnc3ccc(Cl)cc3n2)cc1 [Example 9, 4-(N',N'-dimethylamino)-N-(7-chloro-2-quinoxalinyl)benzenesulfonamide] | 10.4 (≈ 28.7 µM)
11 | O=S(=O)(Nc1cnc2c(Cl)cccc2n1)c1ccc2occc2c1 [Example 5, N-(5-chloro-2-quinoxalinyl)benzofuran-5-sulfonamide] | 0.2 (≈ 0.556 µM)
12 | O=S(=O)(Nc1cnc2c(Cl)cccc2n1)c1ccc2c(c1)CCO2 [Example 4, N-(5-chloro-2-quinoxalinyl)-2,3-dihydrobenzofuran-5-sulfonamide] | 0.3 (≈ 0.829 µM)
13 | CN1CCc2cc(S(=O)(=O)Nc3cnc4c(Cl)cccc4n3)ccc21 [Example 3, N-(5-chloro-2-quinoxalinyl)-2,3-dihydro-1-methyl-1H-indole-5-sulfonamide] | 0.3 (≈ 0.8 µM)
14 | CN(C)c1ccc(S(=O)(=O)Nc2cnc3c(Cl)cccc3n2)cc1 [Example 2, 4-N',N'-dimethylamino-N-(5-chloro-2-quinoxalinyl)benzenesulfonamide] | 0.1 (≈ 0.276 µM)
15 | Nc1ccc(S(=O)(=O)Nc2cnc3c(Cl)cccc3n2)cc1 [CSQ, 4-amino-N-(5-chloro-2-quinoxalinyl)benzenesulfonamide, reference compound] | 0.8 (≈ 2.39 µM)
16 | CN1CCc2cc(S(=O)(=O)Nc3cnc4ccc(Cl)cc4n3)ccc21 [Example 10, N-(7-chloro-2-quinoxalinyl)-2,3-dihydro-1-methyl-1H-indole-5-sulfonamide] | 10.8 (≈ 28.8 µM)
